Numbered stars: 1 amine (or outer) side, 2 acyl side, 3 side chain; on linkers, the order of the positions; unused ones are H or OH. Square brackets hold non-standard residues; d marks the D form. Peptide text beside a SMILES is read from it. * marks the point of attachment. X1 = C[C@H]1C[C@@H](c2nc(C(=O)[*:2])cs2)N([*:1])C1; Pyrrolidine(2S-propanoyl) = CCC(=O)[C@@H]1CCCN1*; dNMeTyr(3-Br) = CN[C@H](Cc1ccc(O)c(Br)c1)C(=O)O; NMeF = CN[C@@H](Cc1ccccc1)C(=O)O; Piv = CC(C)(C)C(=O)*
How the values were obtained:
protein kinase C (PKC) = experiment: Reverse phase protein array (RPPA) profiling, PKC signalling; assay type: cell-based, human; conditions: HCT116 cell lysates, 3.0–0.03 μM, 24 h exposure, normalised to DMSO
Text: (§1) The only clearly discernible inhibition of pathway signalling was for protein kinase C (PKC); there was discernible reduction in total protein expression of the insulin receptor substrate protein IRS‐1 (Figure S2).
(§2) Reverse phase protein array methods: The abundance of total protein and phosphorylated protein epitopes was quantified by using a Zeptosens reverse phase protein microarray platform (Bayer Technology Services, Leverkusen, Germany) as previously described.30 Briefly, HCT116 cells were seeded (4×10^5 cells per well) in six‐well plates. Cells were pre‐incubated in treatment‐free medium for 48 h prior to addition of Bis1–3 at six‐point half‐log doses (3.0–0.03 μM) and incubation for 30 min, 3 h and 24 h. Control samples were treated with medium containing DMSO (0.1 % v/v). The medium was then removed, and the cells were lysed by incubation with CLB1 buffer (Zeptosens) for 30 min. Cell lysates were normalised to a uniform protein concentration with CSBL1 spotting buffer (Zeptosens) prior to preparing a final fourfold concentration series of ([…] mL^−1). The concentration series of each sample was printed onto ZeptoChip protein microarray chips (Zeptosens) under controlled conditions (50 % humidity, 14 °C) by using a Nano‐Plotter NP21/E non‐contact printer (GeSIM, Radeberg, Germany). Single droplets (400 pL) were deposited onto the chips. A reference grid (four columns, 22 rows) of Alexa Fluor 647‐conjugated BSA (Invitrogen) was spotted onto each sub‐array; samples were spotted between reference columns. […] Microarray images representing the longest exposure without saturation of the fluorescence signal were automatically selected for analysis in ZeptoView 3.1 software. A weighted linear‐fit through the fourfold concentration series was used to calculate relative fluorescence intensity (RFI). […]
(§3) Figure S2. […] The mechanism-of-action of Tz-BBA analogues Bis1-3 at the post translational pathway level was evaluated against a panel of 62 protein and phospho-protein analytes by reverse phase protein array (RPPA). […]

IRS‐1 = experiment: Reverse phase protein array (RPPA) profiling, IRS-1 total protein expression; assay type: cell-based, human; conditions: HCT116 cell lysates, 3.0–0.03 μM, 24 h exposure, normalised to DMSO
Text: as §1, §2, §3

HCT116 cells [1] = experiment: alamarBlue cell viability assay; assay type: cell-based, human; conditions: 72 h incubation, eight-point half-log doses 0.003–10 μM, alamarBlue fluorescence, relative to DMSO control, n=3
Procedure: (§4) The effects of Bis1–6 on the growth of HCT116 cells (human colon cancer cell‐line) were assessed on an IncuCyte Zoom platform. HCT116 cells express an activating Ras mutation, and represent an aggressive and common form of human colon cancer.26 Dasatinib (dual Src‐Abl tyrosine kinase inhibitor) and DMSO (vehicle, 0.1 % v/v) were used as controls. […] The relative activity of all the analogues was further evaluated by testing each in an eight‐point half‐log dose–response assay (alamarBlue cell viability assay).
Figure 1 HCT116 cell viability. Dose–response curves determined by an alamarBlue cell viability assay after incubation with Bis1–6 (0.003–10 μM) for 72 h. Conversion of the alamarBlue reagent to the activated fluorescent resorufin cell viability indicator was calculated for DMSO (vehicle) and compound‐treated samples. Viability is expressed relative to control (DMSO). Dose–response plots are mean±SD (n=3).
Cell viability assay: HCT116 cells were seeded in a 96‐well plate (5000 cells per well) and incubated for 48 h before treatment. The medium (DMEM with 10 % foetal calf serum and 2 mM glutamine) was replaced with fresh medium containing each of Bis1–6 as eight‐point half‐log doses, and incubated for 3 days. alamarBlue (Invitrogen) cell viability reagent (10 % v/v) was added, and the plate was incubated for 1 h. Fluorescence was detected with an EnVision multilabel reader (λ ex=540 nm, λ em=590 nm; PerkinElmer). All data were normalised to DMSO‐treated cells, and curves were fitted in GraphPad Prism with a sigmoidal variable‐slope curve.

HCT116 cells [2] = experiment: Cytoskeletal morphology assay (ImageXpress high-content imaging, F-actin/DAPI); assay type: cell-based, human; conditions: 1 μM, 48 h, F-actin (phalloidin) and DAPI staining
Text: Perhaps most striking in terms of identifying a mechanism for the cytotoxicity were the morphological images collected on an ImageXpress high content microscope (Figure 2). […] The morphological changes induced by Bis1 and Bis2 are in good accord with those previously reported for the parent compound (BBA) in HeLa cells,8 and indicate that the switch from thiazoline to thiazole to facilitate the generation of these Tz‐BBA analogues by SPPS has not impaired activity.
Figure 2 HCT116 cytoskeletal morphology after treatment with 1 μM Bis1–6 for 48 h. Cells were permeabilised and fixed in paraformaldehyde prior to staining nuclei (DAPI, blue) and filamentous‐actin fibres (F‐actin; phalloidin conjugated to Alexa Fluor […], green). Images were acquired in an automated ImageXpress microXL high‐content imaging platform (Molecular Devices) with a 20× objective; images show HCT116 cell morphology for DMSO (control) and each treatment group: A) DMSO; B) cytochalasin D; C) Bis1; D) Bis2; E) Bis3 (representative also for Bis4); F) Bis 6 (representative also for Bis5).
(§5) High‐content imaging methods: Kinetic cell growth and apoptosis assays were performed with an IncuCyte ZOOM live‐cell imaging system (Essen Bioscience, Ann Arbor, MI). Cytoskeletal morphology assays were performed on an ImageXpress Micro High‐Content Analysis System (Molecular Devices, Sunnyvale, CA).
Cytoskeletal morphology assays: Cells were seeded in a 96‐well plates (5000 cells per well) and incubated for 24 h before treatment. The medium was then replaced with fresh medium containing Bis1–6 as eight‐point half‐log doses and incubated for 48 h. Control cells were incubated with DMSO (0.1 % v/v). All images were acquired on an automated ImageXpress Micro XL high‐content imaging platform (Molecular Devices) with a ×20 Plan Fluor ELWD Ph1 DM objective (Nikon) and a 16‐bit camera (binning resolution of 1). Four separate images per well were acquired by using laser‐based autofocus parameters optimised for cell plates and cell type. All immunostaining procedures were performed at room temperature in 96‐well plates (100 μL unless otherwise stated). Cells were fixed by addition of paraformaldehyde (8 % in PBS; final concentration 4 %) and incubated for 20 min. Cells were washed three times with PBS then incubated with a mixture of phalloidin conjugated to Alexa Fluor […] (Molecular Probes (Thermo Fisher) A12379; diluted 1:500) and 4′,6‐diamidino‐2‐phenylindole (DAPI; Sigma–Aldrich D8417) for 45 min in the absence of light. Cells were washed three times with PBS before imaging. Representative images are in Figure 2.

HCT116 cells [3] = experiment: IncuCyte ZOOM kinetic cell growth (confluence) assay; assay type: cell-based, human; conditions: half-log dose response, kinetic readout every 3 h
Procedure: as §4, §5
Apoptosis assay: Cells were seeded in a 96‐well plate (5000 cells per well) and incubated for 24 h before treatment. […] Apoptosis was detected with the cell‐permeable caspase biosensor NucView 488 (Biotium, Hayward, CA), which was added (1 μM) at the same time as compound. IncuCyte imaging software automatically quantifies cell density and NucView/Caspase positive objects at time points following compound addition. This provided a kinetic readout of cell growth and apoptosis induction in cells after addition of each analogue. […]

HeLa S3 cells = test system: HeLa S3 cells; parameters: method as in PMID 19803465; conditions: cited from earlier work
actin‐filament = test system: actin‐filament; parameters: method as in PMID 21322638; conditions: cited from earlier work
ERK and Akt = test system: ERK and Akt; parameters: method as in PMID 24133625; conditions: two renal cancer cell lines; cited from earlier work
ERK = test system: ERK; parameters: method as in PMID 19803465; conditions: NRK cells; cited from earlier work
[4] = test system: panel of 39 human cancer cell lines; parameters: method as in PMID 19803465; conditions: cited from earlier work

Row | Compound | PKC pathway signalling (RPPA) (protein kinase C (PKC)) | total protein expression of IRS-1 (RPPA) (IRS‐1) | EC50 (HCT116 cells [1]) | cytoskeletal morphological changes relative to DMSO control (HCT116 cells [2]) | repression of cell growth (confluence) (HCT116 cells [3]) | IC50 against HeLa S3 cells (HeLa S3 cells) | action on actin filaments (actin‐filament) | phosphorylation of both ERK and Akt (ERK and Akt) | phosphorylation of ERK (ERK) | GI50 [4]
1 | CCC(=O)[C@@H]1CCCN1C(=O)[C@H](C)NC(=O)[C@@H](CC(C)C)NC(=O)c1csc([C@@H]2C[C@H](C)CN2C(=O)[C@@H](Cc2ccc(O)c(Br)c2)N(C)C(=O)[C@H](C)NC(=O)C(C)(C)C)n1 [Bis3] (Piv-A[dNMeTyr(3-Br)][X1][dL]A-{Pyrrolidine(2S-propanoyl)}) | more affected by Bis1 and Bis2 than by Bis3 | more affected by Bis1 and Bis2 than by Bis3 | 483 nM | more elongated cells with prominent F‐actin filaments and promotion of cell‐substrate adhesion |  |  |  |  |  | 
2 | CCC(=O)[C@@H]1CCCN1C(=O)[C@H](Cc1ccccc1)N(C)C(=O)[C@@H](CC(C)C)NC(=O)c1csc([C@@H]2C[C@H](C)CN2C(=O)[C@@H](Cc2ccc(O)c(Br)c2)N(C)C(=O)[C@H](C)NC(=O)C(C)(C)C)n1 [Bis1, thiazole‐bisebromoamide] (Piv-A[dNMeTyr(3-Br)][X1][dL][NMeF]-{Pyrrolidine(2S-propanoyl)}) | reduced activity of PKC | reduced expression of IRS‐1 |  | clear disruption and aggregation of F‐actin filaments together with reduced cell‐substrate adhesion | most active |  |  |  |  | 
3 | CCC(=O)[C@@H]1CCCN1C(=O)[C@H](Cc1ccccc1)N(C)C(=O)[C@H](C)NC(=O)c1csc([C@@H]2C[C@H](C)CN2C(=O)[C@@H](Cc2ccc(O)c(Br)c2)N(C)C(=O)[C@H](C)NC(=O)C(C)(C)C)n1 [Bis4] (Piv-A[dNMeTyr(3-Br)][X1]A[NMeF]-{Pyrrolidine(2S-propanoyl)}) |  |  | 178 nM | more elongated cells with prominent F‐actin filaments and promotion of cell‐substrate adhesion |  |  |  |  |  | 
4 | bisebromoamide [BBA] |  |  |  |  |  | 0.04 µg/mL | actin‐filament stabiliser | inhibited | inhibited | 40 nM
5 | CC(C)C[C@@H](NC(=O)c1csc([C@@H]2C[C@H](C)CN2C(=O)[C@@H](Cc2ccc(O)c(Br)c2)N(C)C(=O)[C@H](C)NC(=O)C(C)(C)C)n1)C(=O)N(C)[C@@H](Cc1ccccc1)C(=O)N[C@@H](C)C(N)=O [Bis2] (Piv-A[dNMeTyr(3-Br)][X1][dL][NMeF]A-NH2) | reduced activity of PKC | reduced expression of IRS‐1 | 71 nM | clear disruption and aggregation of F‐actin filaments together with reduced cell‐substrate adhesion |  |  |  |  |  | 

From PMC5096027, “Naturally Inspired Peptide Leads: Alanine Scanning Reveals an Actin‐Targeting Thiazole Analogue of Bisebromoamide” (Chembiochem, 2016)
